Converted amounts (≈) assume the structure as drawn.
Experiment: Solubility of hexadecylphosphocholine in co-solvent systems at 25° C.
Assay type: physicochemical
Conditions: aqueous with cosolvent or surfactant or cyclodextrin
Description: The alkylphosphocholines are soluble in water, ethanol and methanol, but there are accurate bibliography data missing. […] For example, the solubility of alkylphosphocholines is sufficiency high in glycols and glycol ether. The improvement of alkylphosphocholines solubility is observed in propylene glycol-hexylene glycol-water mixtures as the solubility of alkylphosphocholines increases with increasing hexylene glycol concentration. The maximum is at 50% hexylene glycol level. […] The alkylphosphocholines solubility response is linear in the propylene glycol-concentration range 40÷60% in the co-solvent mixture. The addition of Transcutol P to the co-solvent mixture increased the solubility of alkylphosphocholines as a function of the concentration of Transcutol P, which may be due to a co-solvency effect. The functions of Transcutol P are simultaneously solubilizer and penetration enhancer to enable the active agent to cross the barrier of the stratum corneum.

`CCCCCCCCCCCCCCCCOP(=O)([O-])OCC[N+](C)(C)C` [hexadecylphosphocholine] showed a solubility (hexylene glycol 22, propylene glycol 44, Transcutol P 2, water 32 % v/v) of 153 mg/mL (≈ 375 mM), a solubility (co-solvent system (hexylene glycol/propylene glycol/water), hexylene glycol 22, propylene glycol 44, Transcutol P 0, water 34 % v/v) of 138 mg/mL (≈ 339 mM) and a solubility (co-solvent system (hexylene glycol/water), hexylene glycol 22, propylene glycol 0, Transcutol P 0, water 78 % v/v) of 119 mg/mL (≈ 291 mM).
